According to PubChem BioAssay (NCI):
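How tested: cells in 96-well plates exposed to compound for 48 hours at five concentrations. TGI: concentration producing complete growth inhibition.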 Where a SMILES comes first, the peptide text is derived from it. [ ]: non-standard residue; d: D form. The star is where a group is joined. ξ: configuration not given here. ξPhe(4-NO2) = NC(Cc1ccc([N+](=O)[O-])cc1)C(=O)O; Boc = CC(C)(C)OC(=O)*; OBn = c1ccc(CO*)cc1

How the values were obtained:
Assay in all cases: DTP human tumour cell line panel, 48 h
SF-295 CNS = system: SF-295 CNS
NCI-H226 lung = system: NCI-H226 lung
NCI-H522 lung = system: NCI-H522 lung
A549 NSCLC = system: A549 NSCLC
OVCAR-5 ovarian = system: OVCAR-5 ovarian
OVCAR-8 ovarian = system: OVCAR-8 ovarian
TK-10 renal = system: TK-10 renal
MCF7 breast = system: MCF7 breast
SNB-75 CNS = system: SNB-75 CNS
A498 renal = system: A498 renal
CCRF-CEM leukemia = system: CCRF-CEM leukemia
MALME-3M melanoma = system: MALME-3M melanoma
K-562 leukemia = system: K-562 leukemia

SMILES | TGI (SF-295 CNS) | TGI (NCI-H226 lung) | TGI (NCI-H522 lung) | TGI (A549 NSCLC) | TGI (OVCAR-5 ovarian) | TGI (OVCAR-8 ovarian) | TGI (TK-10 renal) | TGI (MCF7 breast) | TGI (SNB-75 CNS) | TGI (A498 renal) | TGI (CCRF-CEM leukemia) | TGI (MALME-3M melanoma) | TGI (K-562 leukemia)
CS(=O)(=O)c1[nH]nc2[nH]c(=O)[nH]c(=O)c12 | > 10 µM | > 10 µM | > 10 µM | > 10 µM | > 10 µM | > 10 µM | > 10 µM | > 10 µM | > 10 µM | > 10 µM | > 10 µM | > 10 µM | 
O=c1cc(NCC2CCCCC2)[nH]c(=O)[nH]1 | > 100 µM | > 100 µM |  | > 100 µM | > 100 µM | > 100 µM | > 100 µM | > 100 µM | > 100 µM | > 100 µM | > 100 µM | > 100 µM | > 100 µM
CCOC(=O)c1cc(C2CCN(CC(C)CC)C2=S)c(C(=O)/C=C(/C)N)[nH]1 (centres undefined) | > 50 µM | > 50 µM |  |  | > 50 µM | > 50 µM | > 50 µM | > 50 µM | > 50 µM | > 50 µM | > 50 µM | > 50 µM | > 50 µM
O=C1SC(c2ccc(Cl)cc2)(c2ccc(Cl)cc2)c2ccccc21 | > 100 µM | > 100 µM | > 100 µM | > 100 µM | > 100 µM | > 100 µM | > 100 µM | > 100 µM | > 100 µM | > 100 µM | > 100 µM | > 100 µM | > 100 µM
CC(C)(C)OC(=O)NC(Cc1ccc([N+](=O)[O-])cc1)C(=O)NCC(=O)OCc1ccccc1 (centres undefined) (Boc-[ξPhe(4-NO2)]-Gly-OBn) | 40.2 µM | 67.8 µM | 53 µM | > 100 µM | > 100 µM | 52.4 µM | > 100 µM | > 100 µM | 41.5 µM | > 100 µM | 48.8 µM | 61.9 µM | 52.3 µM
CO/C(=N\N=C\c1ccc(OC)cc1OC)c1ccncc1 | > 10 µM | > 10 µM |  | > 10 µM | > 10 µM | > 10 µM | > 10 µM | > 10 µM | > 10 µM | > 10 µM | > 10 µM | > 10 µM | > 10 µM
COc1cc(C)cc2c1C(=O)C(Br)=CC2=O | 30 µM | 32.3 µM | 3.19 µM | 43.4 µM | 36.6 µM | 15.2 µM | 5.9 µM | 21.6 µM | 31.7 µM | 34.5 µM | 3.92 µM | 4.73 µM | 
Cn1c2ccccc2c(=O)c2c(O)cc3c(c21)C=CC1(CCCC1)O3 | > 100 µM | > 100 µM | > 100 µM | > 100 µM | > 100 µM | > 100 µM | > 100 µM | > 100 µM | > 100 µM | > 100 µM | > 100 µM | > 100 µM | 
Cc1cn(CC2=NCC(C)(C)CN2)c(=O)[nH]c1=O | > 100 µM | > 100 µM | > 100 µM | > 100 µM | > 100 µM | > 100 µM | > 100 µM | > 100 µM | > 100 µM | > 100 µM | > 100 µM | > 100 µM | 
